Assay results as given in US10160763B2, “WDR5 inhibitors and modulators” (Vanderbilt University, priority 2016, dated 2018).

Target: WDR5 (Δ23, residues 24-334) (Homo sapiens, UniProt P61964)
Experiment: biochemical
Settings: Kd (M), FPA-based binding affinity at the WDR5 WIN site; IC50 converted to Kd by modified Cheng-Prusoff equation; average of two experiments

O=C(Cc1ccc2c(c1)CCO2)NCc1cccc(-c2cn3c(n2)CCC3)c1 [B153]
Kd: 6.04e-07 M

O=C(Cc1ccc(Cl)c(Cl)c1)NCc1cc(-c2cn3c(n2)CCC3)ccc1-c1ccccc1 [B111]
Kd: 2e-08 M

CC(C)(NC(=O)Cc1ccc(F)c(Cl)c1)c1cccc(-c2cn3c(n2)CCC3)c1 [B216]
Kd: 5.99e-07 M

COc1ccc(C(=O)N(CCc2ccccc2)Cc2cccc(-c3cn4c(n3)CCC4)c2)cc1OC [B57]
Kd: 4.46e-06 M

O=C(NCc1cc(-c2cn3c(n2)CCC3)ccc1N1CCOCC1)c1cc(Cl)ccn1 [B195]
Kd: 9.61e-07 M

COc1cc(C(=O)NC(C)c2cccc(-c3cn4c(n3)CCC4)c2)ccc1C (stereo not drawn) [B201]
Kd: 2.3e-08 M

COc1cccc(C(=O)N(Cc2cccc(-c3cn4c(n3)CCC4)c2)C(C)c2cccc(Cl)c2)c1 (stereo not drawn) [B83]
Kd: 4.51e-07 M

COc1cccc(C(=O)N(Cc2cccc(-c3cn4c(n3)CCC4)c2)CC(C)C)c1 [B85]
Kd: 2.85e-06 M

COc1ccc(C(=O)N(Cc2cccc(-c3cn4c(n3)CCC4)c2)C(C)c2cccc(Cl)c2)cc1OC (stereo not drawn) [B68]
Kd: 3.72e-06 M

Cc1ccc(C(=O)NCc2cccc(-c3cn4c(n3)CCC4)c2)cc1C [B21, N-(3-(6,7-Dihydro-5H-pyrrolo[1,2-a]imidazol-2-yl)benzyl)-3,4-dimethylbenzamide]
Kd: 7.04e-07 M

CC(=O)N1CCCC(C(=O)NC(C)c2cccc(-c3cn4c(n3)CCC4)c2)C1 (stereo not drawn) [B209]
Kd: 1e-08 M

O=C(NCc1cccc(-c2cn3c(n2)CCC3)c1)c1cnco1 [B170]
Kd: 9.24e-07 M

COc1cccc(C(=O)NCc2cc(-c3cn4c(n3)CCC4)ccc2N2CCCC2)c1 [B114]
Kd: 4.73e-07 M

O=C(NCc1cccc(-c2cn3c(n2)CCC3)c1)c1cccc2cccnc12 [B14]
Kd: 5.19e-06 M

CS(=O)(=O)NCc1cccc(C(=O)NCc2cccc(-c3cn4c(n3)CCC4)c2)c1 [B183]
Kd: 1.34e-06 M

O=C(Cc1ccc(Cl)c(Cl)c1)NCc1cc(-c2cn3c(n2)CCC3)ccc1N1CCCC1 [B118]
Kd: 7.6e-08 M

CCC(C1CC1)N(Cc1cccc(-c2cn3c(n2)CCC3)c1)C(=O)c1cccc(OC)c1 (stereo not drawn) [B87]
Kd: 8.63e-07 M

O=C(Cc1c[nH]c2ccccc12)NCc1cccc(-c2cn3c(n2)CCC3)c1 [B122]
Kd: 2.64e-07 M

O=C(NCc1cccc(-c2cn3c(n2)CCC3)c1)C1CC1c1ccccc1 (stereo not drawn) [B39]
Kd: 5.61e-07 M

O=C(NCc1cccc(-c2cn3c(n2)CCC3)c1)c1ccc2c(c1)OCCO2 [B54]
Kd: 8.08e-07 M

O=C(Cc1ccc(Cl)c(Cl)c1)NCc1cc(-c2cn3c(n2)CCC3)ccc1Oc1ccccc1 [B125]
Kd: 2.2e-07 M

O=C(Cc1ccc(Cl)c(Cl)c1)N(Cc1cc(-c2cn3c(n2)CCC3)ccc1OCC1CC1)CC1CC1 [B100]
Kd: 2e-07 M

O=C(NCc1cccc(-c2cn3c(n2)CCC3)c1)C1CCCN(C(=O)C2CC2)C1 (stereo not drawn) [B187]
Kd: 9.47e-07 M

O=C(NCc1cccc(-c2cn3c(n2)CCC3)c1)C(c1ccccc1)c1ccccc1 [B67]
Kd: 1.06e-06 M

COc1cccc(C(=O)NCc2cc(-c3cn4c(n3)CCC4)ccc2N2CCN(C)CC2)c1 [B147, N-(5-(6,7-dihydro-5H-pyrrolo[1,2-a]imidazol-2-yl)-2-(4-methylpiperazin-1-yl)benzyl)-3-methoxybenzamide]
Kd: 2.22e-06 M

CC(=O)N1CCCC(C(=O)N(Cc2cc(-c3cn4c(n3)CCC4)ccc2N2CCOCC2)CC2CC2)C1 (stereo not drawn) [B176]
Kd: 6.3e-08 M

COC1CCN(c2ccc(-c3cn4c(n3)CCC4)cc2CNC(=O)Cc2ccc(Cl)c(Cl)c2)C1 (stereo not drawn) [B177]
Kd: 2.08e-06 M

COc1cccc(C(=O)NCc2cc(-c3cn4c(n3)CCC4)ccc2-c2ccccc2)c1 [B126]
Kd: 5.7e-08 M

O=C(CCc1ccccc1)NCc1cccc(-c2cn3c(n2)CCC3)c1 [B13]
Kd: 2.3e-06 M

O=C(NCc1cccc(-c2cn3c(n2)CCC3)c1)c1ccc(F)cc1 [B3]
Kd: 5e-06 M

CC(c1cccc(-c2cn3c(n2)CCC3)c1)N(CC1CC1)C(=O)Cc1ccc(Cl)c(Cl)c1 (stereo not drawn) [B190]
Kd: 1.1e-08 M

CCC(NC(=O)Cc1ccc(F)c(Cl)c1)c1cccc(-c2cn3c(n2)CCC3)c1 (stereo not drawn) [B217]
Kd: 3.2e-08 M

CC(NC(=O)Cc1ccc(F)c(Cl)c1)c1cc(-c2cn3c(n2)CCC3)ccc1OC1CCC1 (stereo not drawn) [B212]
Kd: 4.7e-08 M

O=C(Cc1ccc(F)c(Cl)c1)NCc1cc(-c2cn3c(n2)CCC3)ccc1OC1CCC1 [B197]
Kd: 2.17e-06 M

COc1cccc(C(=O)N(CC2CC2)C(C)c2cccc(-c3cn4c(n3)CCC4)c2)c1 (stereo not drawn) [B191]
Kd: 1.85e-06 M

O=C(Cc1ccc(Cl)c(F)c1)NCc1cccc(-c2cn3c(n2)CCC3)c1 [B82]
Kd: 5.02e-07 M

Cc1ccc(C(=O)NCc2cccc(-c3cn4c(n3)CCC4)c2)cc1C(F)(F)F [B130]
Kd: 9.72e-07 M

COc1cccc(NC(=O)NCc2cccc(-c3cn4c(n3)CCC4)c2)c1 [B24]
Kd: 2.05e-07 M

O=C(Cc1ccc(F)c(Cl)c1)N(Cc1cc(-c2cn3c(n2)CCC3)ccc1N1CCOCC1)CC1CCOCC1 [B202]
Kd: 4.56e-07 M

O=C(Cc1ccc(Cl)c(Cl)c1)NCc1cc(-c2cn3c(n2)CCC3)ccc1OCc1ccccc1 [B116]
Kd: 2.76e-07 M

O=C(Cc1cccc(OC(F)(F)F)c1)NCc1cccc(-c2cn3c(n2)CCC3)c1 [B137]
Kd: 2.6e-08 M

CC(C(=O)NCc1cccc(-c2cn3c(n2)CCC3)c1)c1ccccc1 (stereo not drawn) [B84]
Kd: 4.35e-07 M

CN(Cc1cccc(-c2cn3c(n2)CCC3)c1)C(=O)Cc1cc(Cl)cc(Cl)c1 [B71]
Kd: 6.12e-07 M

O=C(NCc1cccc(-c2cn3c(n2)CCC3)c1)C1CCCNC1 (stereo not drawn) [B43]
Kd: 6.3e-07 M

CC(NC(=O)Cc1ccc(F)c(Cl)c1)c1cc(-c2cn3c(n2)CCC3)ccc1F (stereo not drawn) [B222]
Kd: 9.9e-08 M

COc1ccc(C(=O)N(Cc2cccc(-c3cn4c(n3)CCC4)c2)C2CC2)cc1OC [B53]
Kd: 1.14e-06 M

CC(C)N(Cc1cccc(-c2cn3c(n2)CCC3)c1)C(=O)Nc1cc(Cl)cc(Cl)c1 [B72]
Kd: 3.01e-07 M

CC(=O)N1CC(CC(=O)NCc2cccc(-c3cn4c(n3)CCC4)c2)C1 [B141]
Kd: 1e-08 M

CC1CN(c2ccc(-c3cn4c(n3)CCC4)cc2CNC(=O)Cc2ccc(Cl)c(Cl)c2)CC(C)O1 (stereo not drawn) [B165]
Kd: 3.32e-06 M

O=C(NCc1cccc(-c2cn3c(n2)CCC3)c1)c1cc(Cl)cc(Cl)c1 [B5]
Kd: 2.28e-06 M

COc1cccc(NC(=O)N(C)Cc2cccc(-c3cn4c(n3)CCC4)c2)c1 [B31]
Kd: 3.24e-07 M

O=C(Cc1cc(C(F)(F)F)cc(C(F)(F)F)c1)NCc1cccc(-c2cn3c(n2)CCC3)c1 [B134]
Kd: 4.59e-06 M

COc1cccc(C(=O)NCc2cc(-c3cn4c(n3)CCC4)ccc2N2CCCCC2)c1 [B103]
Kd: 1.04e-07 M

O=C(NCc1cccc(-c2cn3c(n2)CCC3)c1)C1CCCN(C(=O)CC(F)(F)F)C1 (stereo not drawn) [B184]
Kd: 5.8e-08 M

O=C(/C=C/c1ccccc1)NCc1cccc(-c2cn3c(n2)CCC3)c1 [B12]
Kd: 1.19e-06 M

O=C(CCc1cccc(Cl)c1)NCc1cccc(-c2cn3c(n2)CCC3)c1 [B158]
Kd: 4.99e-06 M

COc1ccc(C(=O)N(Cc2cccc(-c3cn4c(n3)CCC4)c2)CC2CC2)cc1OC [B59]
Kd: 6.18e-07 M

C[C@H](C(=O)N(Cc1cccc(-c2cn3c(n2)CCC3)c1)CC1CC1)c1ccccc1 [B61]
Kd: 6.45e-07 M

COc1cccc(C(=O)NCc2cc(-c3cn4c(n3)CCC4)ccc2N2CCC(OC)C2)c1 (stereo not drawn) [B178]
Kd: 1.73e-06 M

COc1ccc(C(=O)N(Cc2ccc(C)cc2)Cc2cccc(-c3cn4c(n3)CCC4)c2)cc1OC [B66]
Kd: 5.53e-07 M

CC(=O)N1CCCC(C(=O)NC(C)c2cc(-c3cn4c(n3)CCC4)ccc2OC2CCC2)C1 (stereo not drawn) [B208]
Kd: 2.2e-08 M

COc1cc(C(=O)NC(C)c2cc(-c3cn4c(n3)CCC4)ccc2N2CCOCC2)ccc1C (stereo not drawn) [B213]
Kd: 4.7e-08 M

O=C(CCc1ccccc1)N(Cc1cccc(-c2cn3c(n2)CCC3)c1)CC1CC1 [B19]
Kd: 1.82e-06 M
